Our source for the IC50 values is patent US11306096B2, “4,6 dihydropyrrolo [3,4-C] pyrazole-5 (1H)-carbonitrile derivates for treating cancer” (MISSION THERAPEUTICS LIMITED, priority 2016, dated 2022).

A value given as a limit tells only on which side of the number the result lay.

USP7, sequence (Q93009 whole entry): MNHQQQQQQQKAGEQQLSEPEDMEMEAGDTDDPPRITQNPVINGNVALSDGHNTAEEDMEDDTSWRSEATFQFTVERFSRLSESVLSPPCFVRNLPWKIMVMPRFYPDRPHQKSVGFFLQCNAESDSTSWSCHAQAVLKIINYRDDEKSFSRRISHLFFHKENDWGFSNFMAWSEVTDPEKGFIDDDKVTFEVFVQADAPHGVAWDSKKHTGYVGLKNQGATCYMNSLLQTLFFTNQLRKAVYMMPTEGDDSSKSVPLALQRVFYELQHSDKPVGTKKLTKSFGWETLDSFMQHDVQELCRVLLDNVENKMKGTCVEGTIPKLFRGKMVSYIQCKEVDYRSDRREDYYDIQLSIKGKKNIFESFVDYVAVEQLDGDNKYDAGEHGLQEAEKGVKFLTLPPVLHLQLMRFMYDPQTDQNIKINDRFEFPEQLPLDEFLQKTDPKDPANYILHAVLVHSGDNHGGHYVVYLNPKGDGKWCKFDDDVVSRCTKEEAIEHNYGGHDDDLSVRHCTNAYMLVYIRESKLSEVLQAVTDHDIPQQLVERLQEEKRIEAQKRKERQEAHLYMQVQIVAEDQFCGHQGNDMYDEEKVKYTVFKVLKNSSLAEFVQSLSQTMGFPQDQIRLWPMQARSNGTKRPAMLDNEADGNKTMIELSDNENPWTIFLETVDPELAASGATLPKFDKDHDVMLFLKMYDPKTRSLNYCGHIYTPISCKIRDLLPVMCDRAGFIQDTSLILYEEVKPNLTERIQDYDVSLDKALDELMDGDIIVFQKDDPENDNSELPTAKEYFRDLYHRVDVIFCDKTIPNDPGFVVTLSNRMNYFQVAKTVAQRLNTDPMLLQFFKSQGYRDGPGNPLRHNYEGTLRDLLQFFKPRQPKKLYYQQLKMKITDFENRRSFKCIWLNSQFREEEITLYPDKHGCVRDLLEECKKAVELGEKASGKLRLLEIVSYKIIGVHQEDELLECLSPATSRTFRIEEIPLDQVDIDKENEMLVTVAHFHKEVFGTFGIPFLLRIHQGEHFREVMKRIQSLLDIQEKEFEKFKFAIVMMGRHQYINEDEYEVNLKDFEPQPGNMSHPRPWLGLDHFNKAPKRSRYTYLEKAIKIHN

The target in the experiment is USP7 (Homo sapiens (Human), UniProt Q93009). The experiment is described as follows: USP7 Biochemical IC50 Assay. Particulars: FLAG-USP7; enzyme and compound incubated 30 min at room temp; TAMRA labelled peptide-ubiquitin fluorescence polarisation substrate; read after 2 hr; read-out: IC50 range. The procedure:
The USP7 construct was PCR amplified and cloned into a pFLAG-CMV-6a vector (Sigma-Aldrich) with an N-terminal FLAG tag. HEK293T cells were transfected with FLAG-USP7 using TransIT-LT1 transfection reagent (Mirus) according to the manufacturer's instructions. Cells were harvested 40 hours after transfection. […] The resin was washed two times with low salt buffer plus protease inhibitors (complete mini, Roche) and phosphatase inhibitors (PhosSTOP mini, Roche) and one time with high salt buffer (20 mM Tris, pH 7.5, 500 mM NaCl, 0.5 mM EDTA, 5 mM beta-mercaptoethanol, protease inhibitors (complete mini, Roche) and phosphatase inhibitors (PhosSTOP mini, Roche). To elute the bound USP7, elution buffer (10 mM Tris, pH 7.5, 150 mM NaCl, 0.5 mM EDTA, 10% glycerol, 0.5% NP40, 5 mM beta-mercaptoethanol, 0.15 mg/ml 3×FLAG peptide (Sigma-Aldrich)) was added to the resin and incubated at 4° C. for 2.5 hours rotating. The resin was centrifuged at 4000 rpm for 30 seconds, and the supernatant containing purified FLAG-USP7 was removed and stored at −80° C.
USP7 Biochemical IC50 Assay
A typical 8-point dilution series would be 100, 30, 10, 3, 1, 0.3, 0.1, 0.03 μM final. […] Either 1 μl of 50% DMSO or diluted compound was added to the plate. USP7 was diluted in reaction buffer (20 mM Tris, pH 7.5, 100 mM NaCl, 0.05% Tween 20, 0.5 mg/ml BSA, 5 mM—beta mercaptoethanol) to the equivalent of 0.0025 μl/well and 10 μl of diluted USP7 was added to the compound. Enzyme and compound were incubated for 30 min at room temp. Reactions were initiated by the addition of 50 nM of TAMRA labelled peptide linked to ubiquitin via an iso-peptide bond as fluorescence polarisation substrate. Reactions were read immediately after addition of substrate and following a 2 hr incubation at room temperature. Readings were performed on a Pherastar Plus (BMG Labtech). λ Excitation 540 nm; λ Emission 590 nm.
On the technique in general: Fluorescence polarisation rises when a labelled molecule tumbles more slowly, as on binding a larger partner.
For the compound `N#CN1Cc2cnn(-c3cccc(C(=O)NCc4ccccc4)c3)c2C1` [Example 11, N-Benzyl-3-(5-cyano-5,6-dihydropyrrolo[3,4-c]pyrazol-1(4H)-yl)benzamide], the IC50 was in the range of 10 to 30 µM.

In the case of `CCc1ccc(OC)c(-c2n[nH]c3c2CN(C#N)C3)c1` [Example 64, 3-(5-Ethyl-2-methoxyphenyl)-4,6-dihydropyrrolo[3,4-c]pyrazole-5(1H)-carbonitrile], the half-inhibitory concentration (IC50) was under 10 µM. Regarding `Cc1ccc(C(=O)NCc2nn(-c3ccccc3)c3c2CN(C#N)C3)cc1` [Example 35, N-((5-Cyano-1-phenyl-1,4,5,6-tetrahydropyrrolo[3,4-c]pyrazol-3-yl)methyl)-4-methylbenzamide], the IC50 was under 10 µM. To `N#CN1Cc2[nH]nc(-c3cccc(NS(=O)(=O)C4CC4)c3)c2C1` [Example 56, N-(3-(5-Cyano-1,4,5,6-tetrahydropyrrolo[3,4-c]pyrazol-3-yl)phenyl)cyclo-propanesulfonamide] belongs under 10 µM; to `N#CN1Cc2c(Nc3cc4ccccc4cn3)nn(Cc3ccccc3)c2C1` [Example 32, 1-Benzyl-3-(isoquinolin-3-ylamino)-4,6-dihydropyrrolo[3,4-c]pyrazole-5(1H)-carbonitrile], under 10 µM. With `COc1ccc(C(C)C)cc1-c1c2c(nn1C)CN(C#N)C2` [Example 63, 3-(5-Isopropyl-2-methoxyphenyl)-2-methyl-2,6-dihydropyrrolo[3,4-c]pyrazole-5(4H)-carbonitrile], the IC50 lay in the range of 10 to 30 µM. As to `N#CN1Cc2cnn(-c3cc(-c4ccccc4)n[nH]3)c2C1` [Example 20, 1-(3-Phenyl-1H-pyrazol-5-yl)-4,6-dihydropyrrolo[3,4-c]pyrazole-5(1H)-carbonitrile], the IC50 was 10 to 30 µM. With `N#CN1Cc2cnn(-c3cn(-c4ccccc4)cn3)c2C1` [Example 9, 1-(1-Phenyl-1H-imidazol-4-yl)-4,6-dihydropyrrolo[3,4-c]pyrazole-5(1H)-carbonitrile] the figure was 10 to 30 µM; with `N#CN1Cc2[nH]nc(-c3ccc(C(F)(F)F)cc3F)c2C1` [Example 43, 3-(2-Fluoro-4-(trifluoromethyl)phenyl)-4,6-dihydropyrrolo[3,4-c]pyrazole-5(1H)-carbonitrile], under 10 µM; with `N#CN1Cc2[nH]nc(-c3cccc(F)c3)c2C1` [Example 57, 3-(3-Fluorophenyl)-4,6-dihydropyrrolo[3,4-c]pyrazole-5(1H)-carbonitrile], under 10 µM.

The term IC50 denotes the midpoint of a concentration-inhibition curve.
